Data on one sequence can be found in patent US20130115256A1, “METHODS FOR TREATING OR PREVENTING VASCULAR GRAFT FAILURE” (priority 2010, published 2013).

For one assay, the system named is THP-1 cells. Nature of the assay: TNF-α and IL-1β production in PMA/LPS-treated THP-1 cells (ELISA). Type of assay: cell-based, human. Here is the method: The ability of MMI-0100 ([…]; SEQ ID NO: 1) to inhibit the production of inflammatory cytokines (TNF-α and IL-1β) in vitro was examined using THP-1 cells. Briefly, THP-1 cells were activated with PMA for 24 hours, and treated subsequently with 10 μg of LPS. The amount of inflammatory cytokines (TNF-α and IL-1β, pg/ml) produced in the medium in the presence or absence of increasing concentrations (1 μM, 3 μM, 10 μM, and 30 μM) of MMI-0100 ([…]; SEQ ID NO: 1) was determined by cytokine specific enzyme-linked immunosorbent assay (ELISA). Analysis of inflammatory cytokines (TNF-α and IL-1β) was performed with cytokine-specific ELISA kit (PeproTech, Inc., Rocky Hill, N.J.). The cytokine-specific ELISA employs highly-purified anti-cytokine antibodies (capture antibodies) that are noncovalently adsorbed (“coated”) onto plastic microwell plates. After washings, the immobilized antibodies capture specifically soluble cytokine proteins present in samples applied to the plate. After washing away unbound material, the captured cytokine proteins are detected by biotin-conjugated anti-cytokine antibodies (detection antibodies) followed by an enzyme-labeled avidin or streptavidin reporter. Following addition of a chromogenic (color-developing) substrate-containing solution, the level of colored product generated by the bound, enzyme-linked, detection reagents can be measured spectrophotometrically using an ELISA-plate reader at an appropriate optical density.
In order to prepare plates for ELISA, capture antibodies (anti-TNF-α or anti-IL-1β antibodies) were diluted with PBS to a concentration of 1 μg/ml. 100 μl of each diluted antibody was added immediately to each well of the ELISA plate. […]
The standard was diluted from 2 ng/ml to zero in diluent, and 100 μl of the standard or sample was added immediately to each well in triplicate and incubated at room temperature for at least 2 hours. […] The level of colored product generated by the bound, enzyme-linked, detection reagents was measured spectrophotometrically using an ELISA-plate reader at an appropriate optical density.

The next assay concerns the target T1, MKK4 (Homo sapiens, UniProt P45985).
T1 construct: purchased Millipore (KinaseProfiler service)
T1 sequence (P45985 1-399): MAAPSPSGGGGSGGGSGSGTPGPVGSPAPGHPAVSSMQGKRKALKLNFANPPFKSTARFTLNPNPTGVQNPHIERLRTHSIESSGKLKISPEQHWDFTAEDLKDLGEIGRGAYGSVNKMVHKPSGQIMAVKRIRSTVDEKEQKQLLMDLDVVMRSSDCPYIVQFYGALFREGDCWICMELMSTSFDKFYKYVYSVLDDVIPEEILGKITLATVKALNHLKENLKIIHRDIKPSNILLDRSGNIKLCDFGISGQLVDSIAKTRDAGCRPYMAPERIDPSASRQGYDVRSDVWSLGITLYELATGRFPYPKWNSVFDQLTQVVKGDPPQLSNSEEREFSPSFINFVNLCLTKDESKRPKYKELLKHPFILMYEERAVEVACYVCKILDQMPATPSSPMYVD
Briefly: MKK4 radiometric kinase assay. Type of assay: biochemical. The conditions noted are these: MMI-0100 100 μM; remaining kinase activity. From the text: (§1) A commercial radiometric assay service was used to test the specificity and potency of MMI-0100 ([…]; SEQ ID NO: 1) by measuring its half maximal inhibitory concentrations (IC50). This quantitative assay measures how much MK2 inhibitor (MMI-0100; […] (SEQ ID NO: 1)) is needed to inhibit 50% of a given biological process or component of a process (i.e., an enzyme, cell, or cell receptor). Specifically, in these assays, a positively charged substrate is phosphorylated with a radiolabeled phosphate group from an ATP if the kinase is not inhibited by an inhibitor peptide. The positively charged substrate then is attracted to a negatively charged filter membrane, quantified with a scintillation counter, and compared to a 100% activity control. ATP concentrations within 15 μM of the apparent Km for ATP were chosen since an ATP concentration near the Km may allow for the kinases to have the same relative amount of phosphorylation activity. The individual conditions for each radiometric assay are as follows.
The reaction was initiated by the addition of the MgATP. After incubation for 40 minutes at room temperature, 5 μl of the incubation mix was used to initiate the JNK radiometric assay described above.
IC50 values for inhibitor peptides were determined using Millipore's IC50 Profiler Express service. The IC50 value was estimated from a 10-point curve of one-half log dilutions. […]

Another assay deals with JNK. Nature of the assay: JNK radiometric kinase assay. The conditions noted are these: MMI-0100 100 μM; remaining kinase activity. It is filed as biochemical.
Source text: as §1, with “The individual conditions for each radiometric assay are as follows.” left out
For the JNK (c-Jun N-terminal Kinase) radiometric assay, 5-10 mU of JNK was incubated with 50 mM Tris pH 7.5, 0.1 mM EGTA, 0.1% b-mercaptoethanol, 3 μM ATF2 (a substrate for JNK), 10 mM MgAcetate, and 10 μM of [y-^33P-ATP] in the final reaction volume of 25 μl. […] The washed P30 filtermat was dried and its radioactivity was measured by scintillation counter.
IC50 values for inhibitor peptides were determined using Millipore's IC50 Profiler Express service. […]

Assay [1] relates to mouse lung endothelial cells (MLEC). Briefly: NO analysis (nitrite chemiluminescence). Type of assay: cell-based. The following applies: physiological doses; 24 hours. Here is the method: To measure nitric oxide (NO) production, conditioned medium from mouse lung endothelial cells (MLEC) was examined at 24 hours after treatment with MMI-0100 ([…]; SEQ ID NO: 1). The medium was processed for the measurement of nitrite (NO2) by a NO-specific chemiluminescence analyzer (Sievers) as previously described (Muto, A. et al., J. Exp. Med., 2011, 208(3): 561-575, incorporated herein by reference in its entirety.).

For the sequence YARAAARQARAKALARQLGVAA [MMI-0100], the “IL-1β level in the medium” value in the assay with THP-1 cells (30 μM MMI-0100, PMA then LPS (stimulated control about 450 pg/ml)) is “about 100 pg/ml”. Also, the “TNF-α level in the medium” value in the assay on THP-1 cells (30 μM MMI-0100, PMA then LPS (stimulated control about 1000 pg/ml)) is reported as “about 300 pg/ml”. Further, the “production of pro-inflammatory cytokines (TNF-α and IL-1β)” value in the assay with THP-1 cells (1, 3, 10, 30 μM MMI-0100) is “dose-dependent manner”. The “Percent Activity, MKK4” value at MKK4 stood at 90%. In addition, in the assay with JNK, the “Percent Activity, JNK” value is recorded as 92%. Besides, the “Nitric oxide (NO) production” value in assay [1] is “not suppressed, and was even enhanced”.
